Source: patent EP4617261A1, “2,4,5-TRISUBSTITUTED PYRIMIDINE COMPOUND, PREPARATION METHOD THEREFOR, AND USE THEREOF” (Wenzhou Medical University, priority 2022, dated 2024)

Key:
FGFR1 kinase = target: T1, FGFR1 kinase (Homo sapiens, UniProt P11362); experiment: LANCE ULTRA Assay, inhibitory activity on FGFR1 kinase; format: biochemical; conditions: for inhibition at 0.1 µM: read-out: In vitro FGFR1 kinase inhibition rate (%) (Concentration in 100 nM), Concentration 100 nM; for inhibition at 1 µM: read-out: In vitro FGFR1 kinase inhibition rate (%) (Concentration in 1000 nM), Concentration 1000 nM
T1 construct: purchased CARNA
Protocol: The inhibitory activity of the compounds on FGFR1 kinase was determined using a LANCE ULTRA Assay. The FGFR1 kinase was purchased from CARNA. Specific method was as follows: the compounds under test, adenosine triphosphate (ATP), specific substrate, and FGFR1 kinase were diluted with kinase diluent. A kinase reaction mixture contained FGFR1, ATP, substrate, HEPES (pH = 7.5), MgCl2, EGTA, and Tween-20. A group without any test compound served as a 100% phosphorylation control, and a group where EDTA was added immediately after the addition of FGFR1 kinase served as a 0% phosphorylation control. The kinase reaction mixture was incubated at room temperature for 1 h, and EDTA was added to terminate the reaction for 5 min, a specific antibody was then added, and the mixture was incubated at room temperature for another 1 h, and excitation light was detected using a PerkinElmer Envision Kinase Reader.

A549 = experiment: MTT assay, cell proliferation, A549; format: cell-based; conditions: Homo sapiens, A549 cells, 72 h
Protocol: (§1) An experimental method was described as follows: the compounds under test were first dissolved in DMSO to prepare a stock solution, which was then diluted in gradient with a culture medium of the corresponding cells to prepare test samples, with a final concentration range of the compounds up to 20 µM. Cells in a logarithmic growth phase were seeded into 96-well cell culture plates at an appropriate density, and cultured overnight under corresponding culture conditions, and samples of the compound under test were added and continuously cultured for 72 h.

H1581 = experiment: MTT assay, cell proliferation, H1581; format: cell-based; conditions: Homo sapiens, NCI-H1581, H1581 cells, 72 h
Protocol: as §1, with “The effect of active compounds on cell proliferation was measured using an MTT assay. An” for “An”

MRC-5 = experiment: MTT assay, cell proliferation, MRC-5; format: cell-based; conditions: Homo sapiens, MRC5, MRC-5 cells, 72 h
Protocol: as §1, with “The effect of active compounds on cell proliferation was measured using an MTT assay. An” for “An”

T1 sequence (P11362 22-822): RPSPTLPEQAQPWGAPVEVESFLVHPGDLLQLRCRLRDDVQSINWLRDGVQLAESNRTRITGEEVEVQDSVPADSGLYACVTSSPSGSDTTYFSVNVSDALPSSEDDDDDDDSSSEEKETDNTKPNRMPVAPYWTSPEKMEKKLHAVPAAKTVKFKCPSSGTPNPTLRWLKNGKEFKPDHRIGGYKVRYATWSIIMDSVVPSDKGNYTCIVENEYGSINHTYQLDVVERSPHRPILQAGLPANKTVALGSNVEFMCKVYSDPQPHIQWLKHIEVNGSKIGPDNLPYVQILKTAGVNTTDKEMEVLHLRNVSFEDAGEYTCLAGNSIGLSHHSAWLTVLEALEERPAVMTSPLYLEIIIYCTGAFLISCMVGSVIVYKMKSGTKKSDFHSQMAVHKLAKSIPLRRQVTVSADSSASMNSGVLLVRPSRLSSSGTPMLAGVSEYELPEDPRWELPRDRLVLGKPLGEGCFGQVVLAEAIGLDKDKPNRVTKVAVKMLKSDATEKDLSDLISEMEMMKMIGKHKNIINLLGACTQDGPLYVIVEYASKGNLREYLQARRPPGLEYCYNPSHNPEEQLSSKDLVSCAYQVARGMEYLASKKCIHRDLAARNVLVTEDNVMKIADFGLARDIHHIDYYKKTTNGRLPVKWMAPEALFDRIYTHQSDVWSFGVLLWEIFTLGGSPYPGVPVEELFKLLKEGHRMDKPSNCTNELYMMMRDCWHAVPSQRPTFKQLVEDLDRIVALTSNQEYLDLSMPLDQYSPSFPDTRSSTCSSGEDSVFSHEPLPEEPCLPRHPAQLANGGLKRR

C=CC(=O)Nc1cccc(C)c1Nc1nc(Nc2ccc(N3CCN(C)CC3)cc2)ncc1C(F)(F)F [Compound 14]
inhibition at 0.1 µM (FGFR1 kinase): 11.4%

C=CC(=O)Nc1cccc(C)c1Nc1nc(Nc2ccc(N3CCN(C)CC3)cc2)ncc1Cl [Compound 11, N-(2-((5-chloro-2-((4-(4-methylpiperazine-1-yl)phenyl)amino)pyrimidine-4-yl)amino)-3-methylphenyl)acrylamide]
inhibition at 0.1 µM (FGFR1 kinase): 1.4%

C=CC(=O)NC(=O)c1ccc(Nc2nc(Nc3ccc(N4CCN(C)CC4)cc3)ncc2Cl)cc1Cl [Compound 38, N-acryloyl-2-chloro-4-((5-chloro-2-((4-(4-methylpiperazine-1-yl)phenyl)amino)pyrimidine-4-yl)amino)benzamide]
inhibition at 0.1 µM (FGFR1 kinase): 50.3%

C=CC(=O)Nc1ccccc1Nc1nc(Nc2ccc(N3CCN(C)CC3)cc2)ncc1Cl [Compound 9]
inhibition at 1 µM (FGFR1 kinase): 94.9%

C=CC(=O)Nc1ccc(CCNc2nc(Nc3ccc(N4CCN(C)CC4)cc3)ncc2Cl)cc1 [Compound 33, N-(4-(2-((5-chloro-2-((4-(4-methylpiperazine-1-yl)phenyl)amino)pyrimidine-4-yl)amino)ethyl)phenyl)acrylamide]
IC50 (FGFR1 kinase; read-out: In vitro FGFR1 kinase IC50 value): 0.0607 µM
inhibition at 0.1 µM (FGFR1 kinase): 66.4%

C=CC(=O)Nc1cccc(C)c1Nc1nc(Nc2ccc(N3CCN(C)CC3)cc2)ncc1C [Compound 12]
inhibition at 0.1 µM (FGFR1 kinase): -1.1%

C=CC(=O)Nc1cccc(C)c1Nc1nc(Nc2ccc(N3CCN(C)CC3)cc2)ncc1OC [Compound 13]
inhibition at 0.1 µM (FGFR1 kinase): -0.1%

C=CC(=O)Nc1ccc(Nc2nc(Nc3ccc(N4C[C@@H](C)N[C@@H](C)C4)c(OC)c3)ncc2Cl)cc1Cl [Compound 46]
IC50 (A549): 0.38 ± 0.1 µM
IC50 (H1581): 0.018 ± 0.00178 µM
IC50 (MRC-5): 0.84 ± 0.07 µM

C=CC(=O)Nc1ccc(CNc2nc(Nc3ccc(N4CCN(C)CC4)cc3)ncc2F)cc1 [Compound 18]
inhibition at 0.1 µM (FGFR1 kinase): 5.5%

C=CC(=O)Nc1ccc(CCNc2nc(Nc3ccc(N4CCN(C)CC4)cc3)ncc2F)cc1 [Compound 17]
inhibition at 0.1 µM (FGFR1 kinase): 43%

C=CC(=O)Nc1cccc(C)c1Nc1nc(Nc2ccc(N3CCN(C)CC3)cc2)ncc1F [Compound 10]
inhibition at 1 µM (FGFR1 kinase): 1.23%

CCN1CCN(c2ccc(Nc3cc(N(C)C(=O)Nc4c(Cl)c(OC)cc(OC)c4Cl)ncn3)cc2)CC1 [BGJ398, reference compound]
IC50 (H1581): 0.0867 ± 0.00151 µM
IC50 (MRC-5): 144 µM
